Experimental data: patent publication US10377753B2, “Substituted 4-azaindoles and their use as GluN2B receptor modulators” (Janssen Pharmaceutica NV, priority 2015, dated 2019)
Counter-ions that a name gives are not always drawn.

Target: cloned human NR1/NR2B ion channels (Homo sapiens (Human), UniProt Q05586+Q13224)
Assay: HNR2BC: effects of test articles on cloned human NR1/NR2B ion channels expressed in mammalian cells (FLIPR calcium flux)
Format: cell-based
Conditions: Table 5
Method in brief: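 Compounds were added to dye-loaded cells for 5 min with fluorescence monitored for agonism, followed by co-agonists (glutamate ~EC80, glycine 10 μM saturating) for 5 min. Cells stably expressed inducible human NR1/NR2B, and the buffer was pH 7.4. The FLIPR Ca2+ flux signal was normalized against control wells.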

[1] = cloned human NR1/NR2B ion channels

Chain of cloned human NR1/NR2B ion channels (Q13224 27-1484, other chains not shown): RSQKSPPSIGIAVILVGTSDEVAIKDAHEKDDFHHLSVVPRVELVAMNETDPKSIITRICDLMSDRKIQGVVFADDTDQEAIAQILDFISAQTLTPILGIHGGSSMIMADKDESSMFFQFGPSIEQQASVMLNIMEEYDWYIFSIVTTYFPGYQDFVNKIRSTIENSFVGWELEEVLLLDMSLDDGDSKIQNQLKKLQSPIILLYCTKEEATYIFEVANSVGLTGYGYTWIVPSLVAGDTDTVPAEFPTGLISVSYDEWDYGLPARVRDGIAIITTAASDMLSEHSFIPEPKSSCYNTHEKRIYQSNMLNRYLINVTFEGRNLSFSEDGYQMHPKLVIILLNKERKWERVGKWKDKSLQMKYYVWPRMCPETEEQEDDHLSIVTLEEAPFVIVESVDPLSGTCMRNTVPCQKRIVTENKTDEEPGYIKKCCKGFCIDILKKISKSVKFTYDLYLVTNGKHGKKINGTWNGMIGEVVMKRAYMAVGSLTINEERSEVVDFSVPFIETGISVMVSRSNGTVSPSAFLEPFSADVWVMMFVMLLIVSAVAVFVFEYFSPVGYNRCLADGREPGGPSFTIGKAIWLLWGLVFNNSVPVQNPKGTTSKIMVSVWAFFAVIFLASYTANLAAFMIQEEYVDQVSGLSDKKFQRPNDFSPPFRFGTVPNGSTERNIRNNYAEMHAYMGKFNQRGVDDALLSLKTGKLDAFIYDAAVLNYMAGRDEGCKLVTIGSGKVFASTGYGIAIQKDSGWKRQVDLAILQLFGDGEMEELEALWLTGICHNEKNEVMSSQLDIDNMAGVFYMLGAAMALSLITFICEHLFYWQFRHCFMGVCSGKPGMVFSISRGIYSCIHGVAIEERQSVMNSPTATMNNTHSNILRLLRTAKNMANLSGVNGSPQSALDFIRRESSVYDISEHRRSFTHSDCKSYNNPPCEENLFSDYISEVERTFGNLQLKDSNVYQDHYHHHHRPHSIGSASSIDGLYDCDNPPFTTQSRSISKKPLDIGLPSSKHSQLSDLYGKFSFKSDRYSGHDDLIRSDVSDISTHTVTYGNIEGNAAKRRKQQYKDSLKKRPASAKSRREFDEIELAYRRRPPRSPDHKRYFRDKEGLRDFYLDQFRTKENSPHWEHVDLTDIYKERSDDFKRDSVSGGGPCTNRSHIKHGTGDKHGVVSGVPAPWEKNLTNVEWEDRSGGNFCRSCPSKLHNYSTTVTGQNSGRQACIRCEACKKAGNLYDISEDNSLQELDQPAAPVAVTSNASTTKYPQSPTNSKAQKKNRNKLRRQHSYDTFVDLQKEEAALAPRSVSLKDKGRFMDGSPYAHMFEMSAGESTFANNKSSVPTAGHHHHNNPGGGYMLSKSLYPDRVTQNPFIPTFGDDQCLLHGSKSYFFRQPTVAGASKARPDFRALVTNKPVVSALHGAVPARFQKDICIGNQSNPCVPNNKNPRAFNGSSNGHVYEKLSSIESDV

Row | IC50 (cloned human NR1/NR2B) [µM] | SMILES | also measured
1 | 0.0631 | CC(C)C(=O)Cn1cc(F)c2ncc(-c3cccc(C(F)(F)F)c3)cc21 [Example 328, 1-[3-Fluoro-6-[3-(trifluoromethyl)phenyl]pyrrolo[3,2-b]pyridin-1-yl]-3-methyl-butan-2-one] | –
2 | 0.501 | Cc1cccc(-c2cnc3c(F)cn(CC(=O)C(C)C)c3c2)c1 [Example 329, 1-[3-Fluoro-6-(m-tolyl)pyrrolo[3,2-b]pyridin-1-yl]-3-methyl-butan-2-one] | –
3 | 0.0631 | CSCn1ccc2ncc(-c3ccc(F)c(C)c3)cc21 [Example 330, 6-(4-Fluoro-3-methyl-phenyl)-1-(methylsulfanylmethyl)pyrrolo[3,2-b]pyridine] | –
4 | 1.58 | Cc1cc(-c2cnc3ccn(CS(C)(=O)=O)c3c2)ccc1F [Example 332, 6-(4-Fluoro-3-methyl-phenyl)-1-(methylsulfonylmethyl)pyrrolo[3,2-b]pyridine] | –
5 | 6.31 | CCC(=O)Cn1cc(F)c2ncc(-c3ccc(F)cc3)cc21 [Example 333, 1-[3-Fluoro-6-(4-fluorophenyl)pyrrolo[3,2-b]pyridin-1-yl]butan-2-one] | –
6 | 0.0251 | CCC(=O)Cn1cc(F)c2ncc(-c3cc(F)c(F)c(F)c3)cc21 [Example 334, 1-[3-Fluoro-6-(3,4,5-trifluorophenyl)pyrrolo[3,2-b]pyridin-1-yl]butan-2-one] | –
7 | 0.0126 | CCC(=O)Cn1cc(F)c2ncc(-c3ccc(F)c(C)c3)cc21 [Example 335, 1-[3-Fluoro-6-(4-fluoro-3-methyl-phenyl)pyrrolo[3,2-b]pyridin-1-yl]butan-2-one] | –
8 | 0.02 | CCC(=O)Cn1cc(F)c2ncc(-c3ccc(F)c(F)c3)cc21 [Example 336, 1-[6-(3,4-Difluorophenyl)-3-fluoro-pyrrolo[3,2-b]pyridin-1-yl]butan-2-one] | –
9 | 0.0158 | CCC(=O)Cn1cc(F)c2ncc(-c3cccc(C(F)F)c3)cc21 [Example 337, 1-[6-[3-(Difluoromethyl)phenyl]-3-fluoro-pyrrolo[3,2-b]pyridin-1-yl]butan-2-one] | –
10 | 0.0158 | CCC(=O)Cn1cc(F)c2ncc(-c3ccc(Cl)s3)cc21 [Example 338, 1-[6-(5-Chloro-2-thienyl)-3-fluoro-pyrrolo[3,2-b]pyridin-1-yl]butan-2-one] | –
11 | 0.0126 | CCC(=O)Cn1cc(F)c2ncc(-c3cc(C)cs3)cc21 [Example 339, 1-[3-Fluoro-6-(4-methyl-2-thienyl)pyrrolo[3,2-b]pyridin-1-yl]butan-2-one] | –
12 | – | CC(=O)CCn1ccc2ncc(-c3ccc(F)cc3)cc21 [Example 340, 4-[6-(4-Fluorophenyl)pyrrolo[3,2-b]pyridin-1-yl]butan-2-one] | pIC50 (cloned human NR1/NR2B): 7.9
13 | 1 | CC(C)C(=O)Cn1cc(F)c2ncc(-c3ccc(F)cc3)cc21 [Example 341, 1-[3-Fluoro-6-(4-fluorophenyl)pyrrolo[3,2-b]pyridin-1-yl]-3-methyl-butan-2-one] | –
14 | 0.0501 | CC(C)C(=O)Cn1cc(F)c2ncc(-c3cccc(C(F)F)c3)cc21 [Example 342, 1-[6-[3-(Difluoromethyl)phenyl]-3-fluoro-pyrrolo[3,2-b]pyridin-1-yl]-3-methyl-butan-2-one] | –
15 | 0.0631 | Cc1csc(-c2cnc3c(F)cn(CC(=O)C(C)C)c3c2)c1 [Example 343, 1-[3-Fluoro-6-(4-methyl-2-thienyl)pyrrolo[3,2-b]pyridin-1-yl]-3-methyl-butan-2-one] | –
16 | 0.0501 | CC(C)C(=O)Cn1cc(F)c2ncc(-c3cc(F)c(F)c(F)c3)cc21 [Example 344, 1-[3-Fluoro-6-(3,4,5-trifluorophenyl)pyrrolo[3,2-b]pyridin-1-yl]-3-methyl-butan-2-one] | –
17 | 0.0316 | CC(C)C(=O)Cn1cc(F)c2ncc(-c3ccc(Cl)s3)cc21 [Example 345, 1-[6-(5-Chloro-2-thienyl)-3-fluoro-pyrrolo[3,2-b]pyridin-1-yl]-3-methyl-butan-2-one] | –
18 | 0.0398 | Cc1cc(-c2cnc3ccn(CC(=O)N4CCOCC4)c3c2)ccc1F [Example 346, 2-[6-(4-Fluoro-3-methyl-phenyl)pyrrolo[3,2-b]pyridin-1-yl]-1-morpholino-ethanone] | –
19 | 0.0316 | Cc1cc(-c2cnc3ccn(CC(=O)NC4CC4)c3c2)ccc1F [Example 348, N-Cyclopropyl-2-[6-(4-fluoro-3-methyl-phenyl)pyrrolo[3,2-b]pyridin-1-yl]acetamide] | –
20 | 0.0158 | O=C(Cn1ccc2ncc(-c3cc(F)cc(F)c3)cc21)NC1CC1 [Example 350, N-Cyclopropyl-2-[6-(3,5-difluorophenyl)pyrrolo[3,2-b]pyridin-1-yl]acetamide trifluoroacetate salt] | –
21 | 0.0398 | O=C(Cn1ccc2ncc(-c3cccc(C(F)(F)F)c3F)cc21)NC1CC1 [Example 352, N-Cyclopropyl-2-[6-[2-fluoro-3-(trifluoromethyl)phenyl]pyrrolo[3,2-b]pyridin-1-yl]acetamide trifluoroacetate salt] | –

Row | IC50 (cloned human NR1/NR2B) [µM] | SMILES | also measured
22 | 0.0316 | O=C(Cn1ccc2ncc(-c3ccc(F)cc3)cc21)N1CCC1 [Example 353, 1-(Azetidin-1-yl)-2-[6-(4-fluorophenyl)pyrrolo[3,2-b]pyridin-1-yl]ethanone] | –
23 | 0.0316 | O=C(Cn1ccc2ncc(-c3ccccc3)cc21)N1CCC1 [Example 354, 1-(Azetidin-1-yl)-2-(6-phenylpyrrolo[3,2-b]pyridin-1-yl)ethanone] | –
24 | 0.0501 | O=C(Cn1ccc2ncc(-c3cc(F)cc(F)c3)cc21)N1CCC1 [Example 355, 1-(Azetidin-1-yl)-2-[6-(3,5-difluorophenyl)pyrrolo[3,2-b]pyridin-1-yl]ethanone] | –
25 | 0.02 | Cc1cccc(-c2cnc3ccn(CC(=O)N4CCC4)c3c2)c1 [Example 356, 1-(Azetidin-1-yl)-2-[6-(m-tolyl)pyrrolo[3,2-b]pyridin-1-yl]ethanone trifluoroacetate salt] | –
26 | 0.02 | O=C(Cn1ccc2ncc(-c3ccc(Cl)c(Cl)c3)cc21)N1CCC1 [Example 357, 1-(Azetidin-1-yl)-2-[6-(3,4-dichlorophenyl)pyrrolo[3,2-b]pyridin-1-yl]ethanone trifluoroacetate salt] | –
27 | 0.0398 | O=C(Cn1ccc2ncc(-c3cccc(C(F)(F)F)c3F)cc21)N1CCC1 [Example 358, 1-(Azetidin-1-yl)-2-[6-[2-fluoro-3-(trifluoromethyl)phenyl]pyrrolo[3,2-b]pyridin-1-yl]ethanone trifluoroacetate salt] | –
28 | 0.0316 | Cc1csc(-c2cnc3ccn(CC(=O)N4CCC4)c3c2)c1 [Example 359, 1-(Azetidin-1-yl)-2-[6-(4-methyl-2-thienyl)pyrrolo[3,2-b]pyridin-1-yl]ethanone trifluoroacetate salt] | –
29 | 0.0316 | Cc1cc(-c2cnc3c(Cl)cn(CC(=O)N4CCC4)c3c2)ccc1F [Example 360, 1-(Azetidin-1-yl)-2-[3-chloro-6-(4-fluoro-3-methyl-phenyl)pyrrolo[3,2-b]pyridin-1-yl]ethanone] | –
30 | 0.0251 | O=C(Cn1ccc2ncc(-c3ccc(F)c(F)c3)cc21)N1CC(F)(F)C1 [Example 361, 1-(3,3-Difluoroazetidin-1-yl)-2-[6-(3,4-difluorophenyl)pyrrolo[3,2-b]pyridin-1-yl]ethanone] | –
31 | 0.0316 | O=C(Cn1ccc2ncc(-c3cccc(C(F)(F)F)n3)cc21)N1CCC1 [Example 362, 1-(Azetidin-1-yl)-2-[6-[6-(trifluoromethyl)-2-pyridyl]pyrrolo[3,2-b]pyridin-1-yl]ethanone] | –
32 | 0.0794 | O=C(Cn1ccc2ncc(-c3cc(F)c(F)c(F)c3)cc21)N1CCC1 [Example 363, 1-(Azetidin-1-yl)-2-[6-(3,4,5-trifluorophenyl)pyrrolo[3,2-b]pyridin-1-yl]ethanone] | –
33 | 0.02 | CC(C)C(=O)Cn1ccc2ncc(-c3cc(F)cc(F)c3)cc21 [Example 364, 1-[6-(3,5-Difluorophenyl)pyrrolo[3,2-b]pyridin-1-yl]-3-methyl-butan-2-one] | –
34 | 0.02 | O=C(Cn1ccc2ncc(-c3ccc(F)cc3)cc21)C1CCC1 [Example 365, 1-Cyclobutyl-2-[6-(4-fluorophenyl)pyrrolo[3,2-b]pyridin-1-yl]ethanone] | –
35 | 0.0316 | CCc1cccc(-c2cnc3ccn(CC(=O)NC4CC4)c3c2)c1 [Example 366, N-Cyclopropyl-2-[6-(3-ethylphenyl)pyrrolo[3,2-b]pyridin-1-yl]acetamide] | –
36 | – | O=C(Cn1ccc2ncc(-c3ccc(F)c(F)c3)cc21)N1CCCC1 [Example 367, 2-[6-(3,4-Difluorophenyl)pyrrolo[3,2-b]pyridin-1-yl]-1-pyrrolidin-1-yl-ethanone] | IC50 [1]: 0.0501 µM
37 | – | Cc1csc(-c2cnc3ccn(CC(=O)N4CC(F)(F)C4)c3c2)c1 [Example 368, 1-(3,3-Difluoroazetidin-1-yl)-2-[6-(4-methyl-2-thienyl)pyrrolo[3,2-b]pyridin-1-yl]ethanone] | IC50 [1]: 0.0251 µM
38 | – | Cc1csc(-c2cnc3ccn(CC(=O)N4CCCC4)c3c2)c1 [Example 369, 2-[6-(4-Methyl-2-thienyl)pyrrolo[3,2-b]pyridin-1-yl]-1-pyrrolidin-1-yl-ethanone] | IC50 [1]: 0.02 µM
39 | – | Cc1csc(-c2cnc3ccn(CC(=O)N4CC(F)C4)c3c2)c1 [Example 370, 1-(3-Fluoroazetidin-1-yl)-2-[6-(4-methyl-2-thienyl)pyrrolo[3,2-b]pyridin-1-yl]ethanone] | IC50 [1]: 0.0316 µM
40 | – | O=C(Cn1ccc2ncc(-c3cc(F)c(F)c(F)c3)cc21)N1CC(F)C1 [Example 371, 1-(3-Fluoroazetidin-1-yl)-2-[6-(3,4,5-trifluorophenyl)pyrrolo[3,2-b]pyridin-1-yl]ethanone] | IC50 [1]: 0.0158 µM
41 | – | O=C(Cn1ccc2ncc(-c3ccc(Cl)s3)cc21)N1CC(F)C1 [Example 372, 2-[6-(5-Chloro-2-thienyl)pyrrolo[3,2-b]pyridin-1-yl]-1-(3-fluoroazetidin-1-yl)ethanone] | IC50 [1]: 0.0158 µM
42 | – | O=C(Cn1ccc2ncc(-c3ccc(Cl)s3)cc21)N1CCC1 [Example 373, 1-(Azetidin-1-yl)-2-[6-(5-chloro-2-thienyl)pyrrolo[3,2-b]pyridin-1-yl]ethanone] | IC50 [1]: 0.02 µM
